Measurements: ChEMBL document CHEMBL4270599, “Synthesis of a 3'-C-ethynyl-β-d-ribofuranose purine nucleoside library: Discovery of C7-deazapurine analogs as potent antiproliferative nucleosides” (Eur J Med Chem, 2018)

What was measured:
Type in all cases: functional
NCI-H226 [1] = experiment: Cytotoxicity against human NCI-H226 cells after 48 hrs by SRB assay; conditions: NCI-H226, 48 h; for GI50: read-out: GI50
NCI-H23 = experiment: Cytotoxicity against human NCI-H23 cells after 48 hrs by SRB assay; conditions: NCI-H23, 48 h; for GI50: read-out: GI50; for TGI: read-out: TGI
HCT-116 = experiment: Cytotoxicity against human HCT116 cells after 48 hrs by SRB assay; conditions: HCT-116, 48 h; for GI50: read-out: GI50
UACC-62 = experiment: Cytotoxicity against human UACC62 cells after 48 hrs by SRB assay; conditions: UACC-62, 48 h; for GI50: read-out: GI50; for CC50: read-out: LC50 (the source's name); for TGI: read-out: TGI
UO-31 [2] = experiment: Cytotoxicity against human UO31 cells after 48 hrs by SRB assay; conditions: UO-31, 48 h; for GI50: read-out: GI50; for TGI: read-out: TGI
DU-145 [3] = experiment: Cytotoxicity against human DU145 cells after 48 hrs by SRB assay; conditions: DU-145, 48 h; for GI50: read-out: GI50; for CC50: read-out: pLC50 (the source's name) (converted)
MOLT-4 = experiment: Growth inhibition of human MOLT4 cells assessed as cell growth at 10^-8 M incubated for 48 hrs by sulforhodamine B assay relative to control; conditions: MOLT-4, 48 h, read-out: Activity
SR = experiment: Growth inhibition of human SR cells assessed as cell growth at 10^-8 M incubated for 48 hrs by sulforhodamine B assay relative to control; conditions: read-out: Activity
NCI-H226 [4] = experiment: Growth inhibition of human NCI-H226 cells assessed as cell growth at 10^-8 M incubated for 48 hrs by sulforhodamine B assay relative to control; conditions: NCI-H226, 48 h, read-out: Activity
NCI-H522 = experiment: Growth inhibition of human NCI-H522 cells assessed as cell growth at 10^-8 M incubated for 48 hrs by sulforhodamine B assay relative to control; conditions: NCI-H522, 48 h, read-out: Activity
Malme-3M = experiment: Growth inhibition of human MALME-3M cells assessed as cell growth at 10^-8 M incubated for 48 hrs by sulforhodamine B assay relative to control; conditions: read-out: Activity
SK-OV-3 = experiment: Growth inhibition of human SKOV3 cells assessed as cell growth at 10^-8 M incubated for 48 hrs by sulforhodamine B assay relative to control; conditions: SK-OV-3, 48 h, read-out: Activity
UO-31 [5] = experiment: Growth inhibition of human UO31 cells assessed as cell growth at 10^-8 M incubated for 48 hrs by sulforhodamine B assay relative to control; conditions: UO-31, 48 h, read-out: Activity
HOP-92 = experiment: Growth inhibition of human HOP92 cells assessed as cell growth at 10^-7 M incubated for 48 hrs by sulforhodamine B assay relative to control; conditions: HOP-92, 48 h, read-out: Activity
COLO 205 = experiment: Growth inhibition of human COLO205 cells assessed as cell growth at 10^-7 M incubated for 48 hrs by sulforhodamine B assay relative to control; conditions: COLO 205, 48 h, read-out: Activity
SNB-19 = experiment: Growth inhibition of human SNB19 cells assessed as cell growth at 10^-7 M incubated for 48 hrs by sulforhodamine B assay relative to control; conditions: SNB-19, 48 h, read-out: Activity
SK-MEL-2 = experiment: Growth inhibition of human SK-MEL-2 cells assessed as cell growth at 10^-7 M incubated for 48 hrs by sulforhodamine B assay relative to control; conditions: SK-MEL-2, 48 h, read-out: Activity
OVCAR-3 = experiment: Growth inhibition of human OVCAR3 cells assessed as cell growth at 10^-7 M incubated for 48 hrs by sulforhodamine B assay relative to control; conditions: OVCAR-3, 48 h, read-out: Activity
OVCAR-4 [6] = experiment: Growth inhibition of human OVCAR4 cells assessed as cell growth at 10^-7 M incubated for 48 hrs by sulforhodamine B assay relative to control; conditions: OVCAR-4, 48 h, read-out: Activity
NCI/ADR-RES = experiment: Growth inhibition of human NCI/ADR-RES cells assessed as cell growth at 10^-7 M incubated for 48 hrs by sulforhodamine B assay relative to control; conditions: read-out: Activity
TK-10 = experiment: Growth inhibition of human TK10 cells assessed as cell growth at 10^-7 M incubated for 48 hrs by sulforhodamine B assay relative to control; conditions: TK-10, 48 h, read-out: Activity
DU-145 [7] = experiment: Growth inhibition of human DU145 cells assessed as cell growth at 10^-7 M incubated for 48 hrs by sulforhodamine B assay relative to control; conditions: DU-145, 48 h, read-out: Activity
MCF7 [8] = experiment: Growth inhibition of human MCF7 cells assessed as cell growth at 10^-7 M incubated for 48 hrs by sulforhodamine B assay relative to control; conditions: MCF7, 48 h, read-out: Activity
HT-29 = experiment: Growth inhibition of human HT-29 cells assessed as cell growth at 10^-6 M incubated for 48 hrs by sulforhodamine B assay relative to control; conditions: HT-29, 48 h, read-out: Activity
OVCAR-4 [9] = experiment: Growth inhibition of human OVCAR4 cells assessed as cell growth at 10^-6 M incubated for 48 hrs by sulforhodamine B assay relative to control; conditions: OVCAR-4, 48 h, read-out: Activity
NCI-H322M = experiment: Growth inhibition of human NCI-H322M cells assessed as cell growth at 10^-5 M incubated for 48 hrs by sulforhodamine B assay relative to control; conditions: read-out: Activity
KM12 = experiment: Growth inhibition of human KM12 cells assessed as cell growth at 10^-5 M incubated for 48 hrs by sulforhodamine B assay relative to control; conditions: KM12, 48 h, read-out: Activity
OVCAR-5 = experiment: Growth inhibition of human OVCAR5 cells assessed as cell growth at 10^-5 M incubated for 48 hrs by sulforhodamine B assay relative to control; conditions: OVCAR-5, 48 h, read-out: Activity
K562 = experiment: Growth inhibition of human K562 cells assessed as cell growth at 10^-4 M incubated for 48 hrs by sulforhodamine B assay relative to control; conditions: K562, 48 h, read-out: Activity
SW-620 = experiment: Growth inhibition of human SW620 cells assessed as cell growth at 10^-4 M incubated for 48 hrs by sulforhodamine B assay relative to control; conditions: SW-620, 48 h, read-out: Activity
IGROV-1 = experiment: Growth inhibition of human IGROV1 cells assessed as cell growth at 10^-4 M incubated for 48 hrs by sulforhodamine B assay relative to control; conditions: IGROV-1, 48 h, read-out: Activity
MCF7 [10] = experiment: Growth inhibition of human MCF7 cells assessed as cell growth at 10^-4 M incubated for 48 hrs by sulforhodamine B assay relative to control; conditions: MCF7, 48 h, read-out: Activity
[11] = read-out: pLC50 (the source's name) (converted)
[12] = read-out: LC50 (the source's name)

C#C[C@@]1(O)[C@@H](CO)O[C@@H](n2cc(Br)c3c(N)ncnc32)[C@@H]1O
GI50 (NCI-H226 [1]): 0.373 to 4.42 µM
TGI (NCI-H226 [1]; read-out: TGI): 6.37 to 100 µM
CC50 (NCI-H226 [1]; [11]): > 100 µM
GI50 (NCI-H23): 0.162 to 0.225 µM
TGI (NCI-H23): 1.93 to 4.21 µM
CC50 (NCI-H23; [11]): > 100 µM
GI50 (HCT-116): 0.0258 to 0.0292 µM
CC50 (HCT-116; [12]): > 100 µM
TGI (HCT-116; read-out: TGI): > 100 µM
TGI (HCT-116; read-out: pTGI (converted)): > 100 µM
GI50 (UACC-62): 0.151 to 0.349 µM
CC50 (UACC-62): 60 to 74.9 µM
TGI (UACC-62): 11.8 to 12.9 µM
GI50 (UO-31 [2]): 0.115 to 0.13 µM
TGI (UO-31 [2]): 0.315 to 1.5 µM
CC50 (UO-31 [2]; [11]): > 100 µM
GI50 (DU-145 [3]): 0.0628 to 0.151 µM
TGI (DU-145 [3]; read-out: TGI): > 100 µM
CC50 (DU-145 [3]): > 100 µM
TGI (DU-145 [3]; read-out: pTGI (converted)): > 100 µM
growth at 0.01 µM (MOLT-4): 86 to 95%
growth at 0.01 µM (SR): 101 to 104%
growth at 0.01 µM (NCI-H226 [4]): 96 to 98%
growth at 0.01 µM (NCI-H522): 89 to 95%
growth at 0.01 µM (Malme-3M): 100 to 102%
growth at 0.01 µM (SK-OV-3): 91 to 93%
growth at 0.01 µM (UO-31 [5]): 70 to 84%
growth at 0.1 µM (HOP-92): 63 to 78%
growth at 0.1 µM (COLO 205): 24 to 69%
growth at 0.1 µM (SNB-19): 6 to 71%
growth at 0.1 µM (SK-MEL-2): 48 to 75%
growth at 0.1 µM (OVCAR-3): 62 to 72%
growth at 0.1 µM (OVCAR-4 [6]): 78 to 89%
growth at 0.1 µM (NCI/ADR-RES): 34 to 41%
growth at 0.1 µM (TK-10): 99 to 103%
growth at 0.1 µM (DU-145 [7]): 38 to 58%
growth at 0.1 µM (MCF7 [8]): 12 to 25%
growth at 1 µM (HT-29): 5 to 8%
growth at 1 µM (OVCAR-4 [9]): 19 to 29%
growth at 10 µM (NCI-H322M): -12%
growth at 10 µM (KM12): 7 to 12%
growth at 10 µM (OVCAR-5): 11 to 12%
growth at 100 µM (K562): 7%
growth at 100 µM (SW-620): 4 to 6%
growth at 100 µM (IGROV-1): -2%

C#C[C@@]1(O)[C@@H](CO)O[C@@H](n2cc(I)c3c(N)ncnc32)[C@@H]1O
GI50 (NCI-H226 [1]): 1.35 to 2.18 µM
CC50 (NCI-H226 [1]; [12]): > 100 µM
TGI (NCI-H226 [1]; read-out: TGI): > 100 µM
TGI (NCI-H226 [1]; read-out: pTGI (converted)): > 100 µM
GI50 (NCI-H23): 0.271 to 0.395 µM
CC50 (NCI-H23; [12]): > 100 µM
TGI (NCI-H23): 4.31 to 9.72 µM
GI50 (HCT-116): 0.0344 to 0.0547 µM
TGI (HCT-116; read-out: TGI): > 100 µM
CC50 (HCT-116; [11]): > 100 µM
TGI (HCT-116; read-out: pTGI (converted)): > 100 µM
GI50 (UACC-62): 0.573 to 0.659 µM
CC50 (UACC-62): 6.63 to 24.5 µM
TGI (UACC-62): 2.38 to 3.23 µM
GI50 (UO-31 [2]): 0.0791 to 0.103 µM
CC50 (UO-31 [2]; [12]): > 100 µM
TGI (UO-31 [2]): 3.07 to 3.3 µM
GI50 (DU-145 [3]): 0.0983 to 0.164 µM
TGI (DU-145 [3]; read-out: TGI): > 100 µM
CC50 (DU-145 [3]): > 100 µM
TGI (DU-145 [3]; read-out: pTGI (converted)): > 100 µM
growth at 0.01 µM (MOLT-4): 75 to 83%
growth at 0.01 µM (SR): 94 to 96%
growth at 0.01 µM (NCI-H226 [4]): 84 to 97%
growth at 0.01 µM (NCI-H522): 83 to 85%
growth at 0.01 µM (Malme-3M): 85 to 98%
growth at 0.01 µM (SK-OV-3): 60 to 85%
growth at 0.01 µM (UO-31 [5]): 84 to 85%
growth at 0.1 µM (HOP-92): 38 to 70%
growth at 0.1 µM (COLO 205): 35 to 63%
growth at 0.1 µM (SNB-19): 34 to 59%
growth at 0.1 µM (SK-MEL-2): 63 to 77%
growth at 0.1 µM (OVCAR-3): 76 to 79%
growth at 0.1 µM (OVCAR-4 [6]): 87 to 91%
growth at 0.1 µM (NCI/ADR-RES): 41 to 47%
growth at 0.1 µM (TK-10): 85 to 96%
growth at 0.1 µM (DU-145 [7]): 50 to 57%
growth at 0.1 µM (MCF7 [8]): 18 to 25%
growth at 1 µM (HT-29): 9 to 13%
growth at 1 µM (OVCAR-4 [9]): 38 to 53%
growth at 10 µM (KM12): 3 to 12%
growth at 10 µM (OVCAR-5): 2 to 6%
growth at 100 µM (K562): 7 to 8%
growth at 100 µM (SW-620): 3%
growth at 100 µM (IGROV-1): 2 to 3%
growth at 100 µM (MCF7 [10]): 1 to 3%
